“And” between values parts separate entries of the source, which are not always exact repeats. Equal values may be shown once.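 Tested at 5 concentrations; 48 h exposure; 96-well plates; endpoints linearly interpolated, else capped at highest concentration. GI50 marks 50% less growth. At the TGI there is no net growth.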
Legend:
Assay in all cases: NCI-60 cell line screen, 48 h
[1] = system: SF-295 CNS
[2] = system: CCRF-CEM leukemia
[3] = system: OVCAR-8 ovarian
[4] = system: UACC-257 melanoma
[5] = system: EKVX NSCLC
[6] = system: IGROV1 ovarian
[7] = system: MALME-3M melanoma
[8] = system: A498 renal
[9] = system: RPMI-8226 leukemia
[10] = system: RXF 393 renal

Structure (SMILES) | GI50 [1] | TGI [1] | GI50 [2] | TGI [2] | GI50 [3] | TGI [3] | GI50 [4] | TGI [4] | GI50 [5] | TGI [5] | GI50 [6] | TGI [6] | GI50 [7] | TGI [7] | GI50 [8] | TGI [8] | GI50 [9] | TGI [9] | GI50 [10] | TGI [10]
NC(=O)c1sc(-n2cnc3cc(C(F)(F)F)ccc32)cc1OCc1ccccc1Br | > 25 µM | > 25 µM | > 19.2 µM | > 25 µM | 21.4 µM | > 25 µM | > 25 µM | > 25 µM | > 25 µM | > 25 µM | > 25 µM | > 25 µM | > 16.2 µM | > 25 µM | > 25 µM | > 25 µM | > 23.6 µM | > 25 µM | > 12.9 µM | > 25 µM
CCSC[C@@H]1C[C@](O)(c2ccc(F)cc2)[C@@H](c2ccc(F)cc2)O1 | 15.3 µM | 31.6 µM | 12.5 µM | 30.2 µM | 23.6 µM | > 64.6 µM | 16.1 µM | 32.7 µM | 15.3 µM | 31.7 µM | 14.5 µM | 32.8 µM | 19.9 µM | 37.3 µM | 19 µM | 33.1 µM | 14.9 µM | 36.1 µM | 20.2 µM | 45.7 µM
COc1ccc2c(c1)-c1nn(CCCN(C)C)c3ccc([N+](=O)[O-])c(c13)N2 | 0.175 µM and 0.389 µM | 3.76 µM and 3.07 µM | 0.0825 µM and 0.624 µM | 6.45 µM and 8.72 µM |  | 4.19 µM and 5.06 µM | 0.455 µM and 1.1 µM | 3.26 µM and 10.9 µM | 0.393 µM and 1 µM | 4.22 µM and 9.84 µM | 0.215 µM and 0.507 µM | 3.48 µM and 6.59 µM | 0.306 µM and 0.908 µM | 2.9 µM and 7.68 µM | 0.458 µM and 1.54 µM | 3.51 µM and 8.8 µM |  | 25.5 µM | 0.274 µM and 0.135 µM | 1.33 µM and 2.05 µM
O=C1CC/C(=C/COc2cc(=O)oc3ccccc23)O1 | 14.8 µM | 40.6 µM | 3.1 µM | 21.5 µM | 11.7 µM | 27.7 µM | 12.9 µM | 27.7 µM | 17.9 µM | 40.1 µM | 5.05 µM | 19.5 µM | 2.87 µM | 17.9 µM | 12.6 µM | 35.4 µM | 2.02 µM | 8.07 µM | 6.9 µM | 21 µM
CN(C)c1ccc(/C=N/S(=O)(=O)c2ccc(-n3c(-c4ccccc4)nc4c(Br)cc(Br)cc4c3=O)cc2)cc1 | 35.5 µM | > 100 µM | 3.22 µM | > 100 µM | 34.2 µM | > 100 µM | 44.6 µM | > 100 µM | 27.6 µM | 91.6 µM | 25.6 µM | > 100 µM | 47.2 µM | > 89.7 µM | 32.5 µM | > 93.7 µM | 4.27 µM | > 96.4 µM | 50.2 µM | > 100 µM
C[C@@H](CO)NC(=O)c1cc(-c2ccc(Cl)cc2)nn(-c2cnn(C)c2)c1=O | 16.4 µM | 50.7 µM | 22.1 µM | > 100 µM | 26.3 µM | > 100 µM | 30.6 µM | > 100 µM | 26 µM | > 100 µM | 20.2 µM | 82.1 µM | 17.8 µM | 45 µM | 3.01 µM | 62.3 µM | 20.5 µM | > 100 µM | 7.79 µM | 45.8 µM
CCc1nc(N)nc(N)c1-c1ccc(Cl)c(N=[N+]=[N-])c1 |  | > 100 µM and 82 µM | 0.898 µM and 3.89 µM | 31.9 µM and > 71.9 µM | 15.4 µM and 4.79 µM | > 100 µM | 1.58 µM and 12.9 µM | 40 µM and > 92.7 µM |  | > 100 µM and 99.8 µM | 2.09 µM and 4.22 µM | > 91.2 µM | 14 µM and 6.3 µM | 30.2 µM and 23.5 µM |  | 60.7 µM and 72.6 µM |  | 39.2 µM and 52.1 µM | 2.86 µM and 11.7 µM | 42.3 µM and 73.6 µM
CC(=O)Nc1n[n+]([O-])c2cc(C)ccc2[n+]1[O-] |  | 12.6 µM |  | > 47.4 µM |  | 16.3 µM |  | 18.7 µM |  | 16.8 µM |  | 5.33 µM |  | 18.5 µM |  | 19.4 µM |  | > 100 µM |  | 22.6 µM
COc1cc2c(c(OC)c1OC)-c1ccc(N=NC(N)=S)c(=O)cc1[C@@H](NC(C)=O)CC2 | 1.45 µM | > 100 µM | 0.535 µM | > 100 µM | 2.19 µM | > 100 µM | > 100 µM | > 100 µM | > 100 µM | > 100 µM | 0.482 µM |  |  | > 100 µM | 0.477 µM | 3.15 µM | 0.708 µM | > 100 µM | 0.937 µM | > 100 µM
COc1cccc(N2C(=O)C3C4C=C5c6ccccc6N(c6ccccc6)C5(C3C2=O)[C@H]2C(=O)N(c3cccc(OC)c3)C(=O)[C@@H]42)c1 (some centres not stated) |  | > 100 µM |  | > 100 µM |  | > 100 µM |  | > 100 µM |  | > 100 µM |  | > 100 µM |  | > 100 µM |  | > 100 µM |  | > 100 µM |  | > 100 µM
COc1ccc(C(=O)C#Cc2c[nH]c(=O)[nH]c2=O)cc1 |  | 96.2 µM |  | 10.8 µM |  | 32.5 µM |  | 27.4 µM |  | > 54.4 µM |  | > 62.9 µM |  | 18.7 µM |  | 49.9 µM |  | 41.6 µM |  | 18.3 µM
CCCCCCNCc1cc(C(C)(C)C)cc(CNCCCCCC)c1O | 1.64 µM | 3.16 µM | 1.69 µM | 4.26 µM | 1.75 µM | 3.37 µM | 1.67 µM | 3.13 µM | 1.55 µM | 2.96 µM | 1.76 µM | 3.36 µM | 1.74 µM | 3.43 µM | 2.02 µM | 3.47 µM | 1.96 µM | 4.05 µM | 1.62 µM | 2.99 µM
C=Cn1c([N+](=O)[O-])cnc1/C=C/c1ccc(C(=O)OCCN2CCOCC2)cc1 |  | > 100 µM |  | > 100 µM |  | > 100 µM |  | > 100 µM |  | > 100 µM |  | > 100 µM |  | > 100 µM |  | > 100 µM |  | 78.4 µM |  | > 100 µM

Reference: PubChem BioAssay (NCI)
